Assay results reported in patent US6472350B1, “Utilization of 3-phenyl-pyrones for pest control” (Bayer Aktiengesellschaft, priority 1998, dated 2002).

Tests used:
Format in all cases: in vivo
[1] = system: larvae of the mustard beetle (Phaedon cochleariae); test: Phaedon larvae test; conditions: active compound concentration 0.1 %, cabbage leaves (Brassica oleracea) dipped
Method: (§1) Phaedon Larvae Test Solvent: 7 parts by weight of dimethylformamide Emulsifier: 1 part by weight of alkylaryl polyglycol ether To produce a suitable preparation of active compound, 1 part by weight of active compound is mixed with the stated amounts of solvent and emulsifier, and the concentrate is diluted with emulsifier-containing water to the desired concentration. Cabbage leaves (Brassica oleracea) are treated by being dipped into the preparation of active compound of the desired concentration and are populated with larvae of the mustard beetle (Phaedon cochleariae) while the leaves are still moist. After the desired period of time, the kill in % is determined. 100% means that all beetle larvae have been killed; 0% means that none of the beetle larvae have been killed.

[2] = system: peach aphid (Myzus persicae); test: Myzus test; conditions: active compound concentration 0.1 %, infested cabbage leaves (Brassica oleracea) dipped
Method: as §1, with “Myzus” for “Phaedon Larvae”, “oleracea) which are heavily infested by the peach aphid (Myzus persicae)” for “oleracea)”, “concentration.” for “concentration and are populated with larvae of the mustard beetle (Phaedon cochleariae) while the leaves are still moist.”, “aphids” for “beetle larvae”

[3] = system: caterpillars of the diamond back moth (Plutella xylostella); test: Plutella test; conditions: active compound concentration 0.1 %, cabbage leaves (Brassica oleracea) dipped
[4] = system: green rice leaf hoppers (Nephotettix cincticeps); test: Nephotettix test; conditions: active compound concentration 0.1 %, rice seedlings (Oryza sativa) dipped
Method: Nephotettix Test Solvent: 7 parts by weight of dimethylformamide Emulsifier: 1 part by weight of alkylaryl polyglycol ether To produce a suitable preparation of active compound, 1 part by weight of active compound is mixed with the stated amounts of solvent and emulsifier, and the concentrate is diluted with emulsifier-containing water to the desired concentration. Rice seedlings (Oryza sativa) are treated by being dipped into the active compound preparation of the desired concentration and are populated with green rice leaf hoppers (Nephotettix cincticeps) while the leaves are still moist. After the desired period of time, the kill in % is determined. 100% means that all leaf hoppers have been killed; 0% means that none of the leaf hoppers have been killed.

Structure (SMILES): Cc1cc(F)ccc1-c1c(O)c(C)c(-c2ccccn2)oc1=O [drawing 12]
- Kill in % after 7 d [1]: 100%

Structure (SMILES): Cc1cc(F)ccc1-c1c(O)c(C)c(-c2ccccn2)oc1=O [drawing 10]
- Kill in % after 6 d [2]: 98%

Structure (SMILES): Cc1cc(Cl)ccc1-c1c(O)c(C)c(-c2ccc(F)cc2)oc1=O [drawing 13]
- Kill in % after 7 d [3]: 100%

Structure (SMILES): Cc1cc(F)ccc1-c1c(O)c(C)c(-c2ccccn2)oc1=O [drawing 14]
- Kill in % after 7 d [3]: 100%

Structure (SMILES): Cc1cc(Cl)ccc1-c1c(O)c(C)c(-c2ccc(F)cc2)oc1=O [drawing 11]
- Kill in % after 6 d [4]: 100%
